Laboratory results: ChEMBL document CHEMBL1165930, “The anticancer activity of 3- and 10-bromofascaplysins is mediated by caspase-8, -9, -3-dependent apoptosis” (Bioorg Med Chem, 2010)
Activity calls are given as the source filed them. The calls are words filed in the database; no cut-off is given here.

Columns and labels:
HL-60 [1] = assay: Induction of apoptosis in human HL60 cells assessed as decrease in procaspase-9 level at 500 nM after 24 hrs by Western blot analysis; assay type: functional, cell-based
HL-60 [2] = assay: Induction of apoptosis in human HL60 cells assessed as decrease in procaspase-3 level at 500 nM after 24 hrs by Western blot analysis; assay type: functional, cell-based
HL-60 [3] = assay: Induction of apoptosis in human HL60 cells assessed as decrease in Bid protein level at 500 nM after 24 hrs by Western blot analysis; assay type: functional, cell-based
HL-60 [4] = assay: Induction of apoptosis in human HL60 cells assessed as decrease in procaspase-8 level at 250 nM after 24 hrs by Western blot analysis; assay type: functional, cell-based
HL-60 [5] = assay: Induction of apoptosis in human HL60 cells assessed as decrease in procaspase-9 level at 250 nM after 24 hrs by Western blot analysis; assay type: functional, cell-based
HL-60 [6] = assay: Induction of apoptosis in human HL60 cells assessed as decrease in procaspase-3 level at 250 nM after 24 hrs by Western blot analysis; assay type: functional, cell-based
HL-60 [7] = assay: Induction of apoptosis in human HL60 cells assessed as decrease in Bid protein level at 250 nM after 24 hrs by Western blot analysis; assay type: functional, cell-based
HL-60 [8] = assay: Induction of apoptosis in human HL60 cells assessed as decrease in PARP level at 250 nM after 24 hrs by Western blot analysis; assay type: functional, cell-based
HL-60 [9] = assay: Induction of apoptosis in human HL60 cells assessed as decrease in PARP level at 500 nM after 24 hrs by Western blot analysis; assay type: functional, cell-based
HL-60 [10] = assay: Induction of apoptosis in human HL60 cells assessed as change in mitochondrial permeability at 500 nM after 24 hrs by DiOC6 staining-based flow cytometry (RVb = 90.3%); assay type: functional
[11] = target: Cellular tumor antigen p53 (Mus musculus) (UniProt P02340); assay: Inhibition of p53-mediated transcriptional activity in mouse JB6 Cl41 cells at 125 to 500 nM by luciferase reporter gene assay; assay type: cell-based; conditions: TDE = time-dependent effect
Chain of Cellular tumor antigen p53 (Mus musculus) (P02340 whole entry): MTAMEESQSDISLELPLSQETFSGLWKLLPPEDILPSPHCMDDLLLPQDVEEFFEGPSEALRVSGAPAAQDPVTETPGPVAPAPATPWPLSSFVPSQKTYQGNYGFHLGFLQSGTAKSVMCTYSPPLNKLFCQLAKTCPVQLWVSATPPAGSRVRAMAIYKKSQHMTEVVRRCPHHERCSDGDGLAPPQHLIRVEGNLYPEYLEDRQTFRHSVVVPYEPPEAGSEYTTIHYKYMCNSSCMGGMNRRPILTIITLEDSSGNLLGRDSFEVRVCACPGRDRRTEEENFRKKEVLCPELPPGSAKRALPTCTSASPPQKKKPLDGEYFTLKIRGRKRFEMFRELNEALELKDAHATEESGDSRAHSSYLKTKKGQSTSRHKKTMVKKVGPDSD

[12] = target: Cellular tumor antigen p53 (Mus musculus) (UniProt P02340); assay: Inhibition of p53-mediated transcriptional activity in mouse JB6 Cl41 cells after 24 hrs by luciferase reporter gene assay; assay type: cell-based; conditions: TDE = time-dependent effect
[13] = Effect on proliferation of p53-expressing mouse JB6 Cl41 cells assessed as cell viability at 375 to 500 nM after 6 hrs; assay type: functional
[14] = target: Cellular tumor antigen p53 (Mus musculus) (UniProt P02340); assay: Inhibition of p53-mediated transcriptional activity in mouse JB6 Cl41 cells at 375 to 500 nM after 6 hrs by luciferase reporter gene assay relative to control; assay type: cell-based
[15] = target: Cellular tumor antigen p53 (Mus musculus) (UniProt P02340); assay: Inhibition of p53-mediated transcriptional activity in mouse JB6 Cl41 cells at 125 to 250 nM after 24 hrs by luciferase reporter gene assay relative to control; assay type: cell-based
[16] = target: Transcription factor Jun (Mus musculus) (UniProt P05627); assay: Induction of AP1-mediated transcriptional activity in mouse JB6 Cl41 cells at 15 to 500 nM by luciferase reporter gene assay; assay type: cell-based
Chain of Transcription factor Jun (Mus musculus) (P05627 whole entry): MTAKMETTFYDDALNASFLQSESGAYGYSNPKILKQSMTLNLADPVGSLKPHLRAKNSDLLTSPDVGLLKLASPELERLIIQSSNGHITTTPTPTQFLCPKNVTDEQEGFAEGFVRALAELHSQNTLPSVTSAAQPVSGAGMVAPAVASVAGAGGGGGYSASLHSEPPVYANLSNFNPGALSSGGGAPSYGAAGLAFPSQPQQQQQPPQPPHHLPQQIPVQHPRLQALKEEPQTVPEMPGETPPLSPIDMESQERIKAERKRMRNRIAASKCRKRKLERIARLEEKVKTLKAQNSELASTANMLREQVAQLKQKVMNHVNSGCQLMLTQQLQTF

[17] = target: Transcription factor Jun (Mus musculus) (UniProt P05627); assay: Induction of AP1-mediated transcriptional activity in mouse JB6 Cl41 cells after 24 hrs by luciferase reporter gene assay; assay type: cell-based
[18] = target: Transcription factor Jun (Mus musculus) (UniProt P05627); assay: Induction of AP1-mediated transcriptional activity in mouse JB6 Cl41 cells at 125 to 250 nM after 6 hrs by luciferase reporter gene assay relative to control; assay type: cell-based
[19] = target: Transcription factor Jun (Mus musculus) (UniProt P05627); assay: Induction of AP1-mediated transcriptional activity in mouse JB6 Cl41 cells at 125 to 250 nM after 24 hrs by luciferase reporter gene assay relative to control; assay type: cell-based
JB6 Cl41 [20] = assay: Effect on EGF-stimulated proliferation of mouse JB6 Cl41 cells at 125 nM after 22 hrs by MTS assay; assay type: functional, cell-based
JB6 Cl41 [21] = assay: Effect on EGF-stimulated proliferation of p38-expressing mouse JB6 Cl41 cells at 125 nM after 22 hrs by MTS assay; assay type: functional, cell-based
[22] = Effect on EGF-stimulated proliferation of JNK1-expressing mouse JB6 Cl41 cells assessed as cell viability at 125 nM after 22 hrs by MTS assay; assay type: functional; conditions: JB6 Cl41, 22 h, read-out: Activity
[23] = Effect on EGF-stimulated proliferation of ERK2-expressing mouse JB6 Cl41 cells assessed as cell viability at 125 nM after 22 hrs by MTS assay; assay type: functional; conditions: JB6 Cl41, 22 h, read-out: Activity
[24] = Effect on EGF-stimulated proliferation of JNK1-expressing mouse JB6 Cl41 cells assessed as cell death at 250 nM after 22 hrs by MTS assay; assay type: functional
[25] = Effect on EGF-stimulated proliferation of ERK2-expressing mouse JB6 Cl41 cells assessed as cell death at 250 nM after 22 hrs by MTS assay; assay type: functional
[26] = Effect on EGF-stimulated proliferation of mouse JB6 Cl41 cells assessed as cell viability at 250 nM after 22 hrs by MTS assay; assay type: functional; conditions: JB6 Cl41, 22 h, read-out: Activity
[27] = Effect on EGF-stimulated proliferation of p38-expressing mouse JB6 Cl41 cells assessed as cell viability at 250 nM after 22 hrs by MTS assay; assay type: functional; conditions: JB6 Cl41, 22 h, read-out: Activity
[28] = Selectivity ratio of INCC50 for mouse JB6 Cl41 cells to IC50 for mouse JB6 Cl41 cells; assay type: functional
HL-60 [29] = assay: Selectivity ratio of INCC50 for human HL60 cells to IC50 for human HL60 cells; assay type: functional
HeLa = assay: Selectivity ratio of INCC50 for human HeLa cells to IC50 for human HeLa cells; assay type: functional
SK-MEL-28 = assay: Selectivity ratio of INCC50 for human SK-MEL-28 cells to IC50 for human SK-MEL-28 cells; assay type: functional
THP-1 = assay: Selectivity ratio of INCC50 for human THP1 cells to IC50 for human THP1 cells; assay type: functional
JB6 Cl41 [30] = assay: Inhibition of EGF-stimulated neoplastic transformation of mouse JB6 Cl41 cells by anchorage-independent soft agar assay; assay type: functional, cell-based

Structure (SMILES): O=C1c2ccc(Br)cc2-[n+]2ccc3c([nH]c4ccccc43)c21.[Cl-]
- inhibition (HL-60 [1]): Active
- inhibition (HL-60 [2]): Active
- inhibition (HL-60 [3]): Active
- inhibition (HL-60 [4]): Active
- inhibition (HL-60 [5]): Active
- inhibition (HL-60 [6]): Active
- inhibition (HL-60 [7]): Active
- inhibition (HL-60 [8]): Active
- inhibition (HL-60 [9]): Active
- Activity (HL-60 [10]): 30.6%
- inhibition [11]: tde
- inhibition [12]: tde
- Activity [13]: 50%
- inhibition [14]: 30%
- inhibition [15]: 40%
- Activity [16]: tde
- Activity [17]: Dose-dependent effect
- fold change (FC) [18]: 2
- fold change (FC) [19]: 1.5
- Activity (JB6 Cl41 [20]): inactive
- Activity (JB6 Cl41 [21]): inactive
- viability at 0.125 µM [22]: 60%
- viability at 0.125 µM [23]: 30%
- Activity [24]: 100%
- Activity [25]: 100%
- viability at 0.25 µM [26]: 60%
- viability at 0.25 µM [27]: 40%
- Selectivity ratio [28]: 2.7
- Selectivity ratio (HL-60 [29]): 5.3
- Selectivity ratio (HeLa): 3.1
- Selectivity ratio (SK-MEL-28): 4.8
- Selectivity ratio (THP-1): 8.7
- inhibition (JB6 Cl41 [30]): Dose-dependent effect
